Here are results for six substances from US20150203561A1, “BETA THYMOSIN FRAGMENTS” (REGENERX BIOPHARMACEUTICALS, INC., priority 2008, published 2015).

In series [1] the test system is tissue damage caused by UV radiation. The series can be described thus: UV radiation tissue damage (summary table). The arrangement: key: P = active; U = useful. Particulars: summary of peptide uses.
Series [2] deals with human dermal fibroblasts. The series can be described thus: Collagen secretion, colorimetric assay. In kind it is cell-based. The arrangement: key to Stimulates collagens / Inhibits collagens: P = active; U = useful. Particulars: summary of peptide uses. The procedure: Effect of Tb4 and peptides on collagen secretion • Human dermal fibroblasts (Fb) were cultured to 80% confluence • Cells were treated with 1 μg/ml Tb4 or peptides for 24, 48, or 72 hours. Cells were treated once/day. • Culture supernatants (n=3, experiments repeated 5 times) were assayed for collagen secretion using a colorimetric assay that detects collagen types I, II, III, IV and V, and possibly VII

The test system of series [3] is human dermal fibroblasts. The series is described as follows: Elastin secretion, colorimetric assay. Format: cell-based. Details: key to Stimulates Elastin: P = active; U = useful. Particulars: for Stimulates Elastin: summary of peptide uses. As for the experimental part:
Effect of Tb4 and peptides on elastin secretion • Human dermal fibroblasts (Fb) were cultured to 80% confluence • Cells were treated with 1 μg/ml Tb4 or peptides for 24, 48, or 72 hours. Cells were treated once/day. • Culture supernatants (n=3, experiments repeated 6 times) were assayed for elastin secretion using a colorimetric assay • Data was analyzed using the t-test

In series [4] the test system is neurite outgrowth. The series can be described thus: Promotion of neurite outgrowth (summary table). Particulars: summary of peptide uses. The arrangement: key: P = active; U = useful.
In series [5] the test system is L1. The series can be described thus: Stimulation of L1 production (summary table). Particulars: summary of peptide uses. Details: key: P = active; U = useful.
Series [6] concerns T-lymphocyte. The series is described as follows: Impaired T-lymphocyte blastogenic response (summary table). The arrangement: key: P = active; U = useful. Particulars: summary of peptide uses.
Series [7] deals with neuron survival. The series can be described thus: Promotion of neuron survival (summary table). Details: key: P = active; U = useful. Particulars: summary of peptide uses.
Series [8] deals with T1, IKKb (Homo sapiens, UniProt O14920).
T1 sequence (O14920 1-756): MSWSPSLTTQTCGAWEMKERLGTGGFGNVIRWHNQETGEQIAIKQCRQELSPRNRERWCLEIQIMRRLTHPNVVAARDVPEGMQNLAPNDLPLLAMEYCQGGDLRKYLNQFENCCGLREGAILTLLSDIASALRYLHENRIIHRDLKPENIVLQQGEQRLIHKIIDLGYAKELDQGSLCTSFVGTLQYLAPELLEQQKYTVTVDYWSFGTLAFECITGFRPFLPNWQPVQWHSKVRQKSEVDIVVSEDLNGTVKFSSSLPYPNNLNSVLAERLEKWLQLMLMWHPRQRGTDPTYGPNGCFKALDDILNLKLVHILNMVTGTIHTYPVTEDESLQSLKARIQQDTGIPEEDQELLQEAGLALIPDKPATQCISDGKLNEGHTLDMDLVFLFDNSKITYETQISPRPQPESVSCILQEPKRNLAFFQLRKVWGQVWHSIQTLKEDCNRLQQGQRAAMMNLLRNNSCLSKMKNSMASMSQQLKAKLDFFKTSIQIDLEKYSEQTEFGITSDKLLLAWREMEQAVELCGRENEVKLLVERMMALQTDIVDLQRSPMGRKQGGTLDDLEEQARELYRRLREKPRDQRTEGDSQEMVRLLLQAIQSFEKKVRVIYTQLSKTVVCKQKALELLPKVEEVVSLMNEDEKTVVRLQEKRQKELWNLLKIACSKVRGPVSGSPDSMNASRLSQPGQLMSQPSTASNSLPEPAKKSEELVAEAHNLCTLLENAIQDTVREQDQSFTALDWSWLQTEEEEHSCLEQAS
The series can be described thus: Cell-free IkBa phosphorylation ELISA (NFkB signaling pathway). The arrangement: key to Inhibits IkBa phosphorylation: P = active; U = useful. Particulars: summary of peptide uses. Format: biochemical. The procedure:
Effect of Tb4 and peptides on the NFkB signaling pathway • Cell-free assay • Prepared 1.0, 0.1, and 0.01 ng/ml solutions of Tb4 or peptides in kinase buffer supplied with kit • Added 10 μl of the solutions to wells of a 96-well plate coated with lkBa • IKKb (20 mU) was added to wells • 90 μl kinase reaction buffer (containing ATP) was added to the wells • ELISA to detect phosphorylated lkBa
Background: ELISA stands for enzyme-linked immunosorbent assay.

Series [9] deals with TNF-a-stimulated IL8 secretion. The series is described as follows: Suppression of inflammation (summary table; IL-8 secretion). Format: cell-based, human. The arrangement: key: P = active; U = useful. Particulars: summary of peptide uses. As for the experimental part: (§1) Analysis of IL-8 Secretion • Human corneal epithelial cells or dermal Fb were cultured to 80% confluence • Cells were pre-treated with 1 μg/ml Tb4 or peptides for one hour • Cells were stimulated with 10 ng/ml TNF-a in the presence or absence of Tb4 or peptides • Culture medium was analyzed for secreted IL-8 by ELISA (n=3, experiments repeated twice) • Data was analyzed using the t-test

In series [10] the test system is dermal Fb. The series can be described thus: TNF-a-stimulated IL-8 secretion ELISA, dermal fibroblasts. In kind it is cell-based, human. Particulars: 1 μg/ml, 10 ng/ml TNF-a. As for the experimental part: as §1
The test system of series [11] is cell migration. The series is described as follows: Stimulation of migration (summary table). Particulars: summary of peptide uses. The arrangement: key: P = active; U = useful. Format: cell-based.
The test system of series [12] is p65 subunit of NFkB in human corneal epithelial cells. The series can be described thus: NFkB nuclear translocation. Details: key: P = active; U = useful. Particulars: summary of peptide uses. Format: cell-based. As for the experimental part:
Analysis of NFkB Nuclear Translocation • Human corneal epithelial cells were cultured to 80% confluence • Cells were pre-treated with 1 μg/ml Tb4 or peptide 4A or 6A for one hour • Cells were stimulated with 10 ng/ml TNF-a in the presence or absence of Tb4 or peptides for 15 minutes • Cells were fixed and labeled with antibodies to the p65 subunit of NFkB

For series [13], the system named is Transformed human corneal epithelial cells (HCET). The series can be described thus: Collagen type IV secretion ELISA. Format: cell-based. The arrangement: key to Stimulates collagen IV: P = active; U = useful. Particulars: for Stimulates collagen IV: summary of peptide uses. As for the experimental part: Effect of Tb4 and peptides on collagen type IV secretion • Transformed human corneal epithelial cells (HCET) were cultured to 80% confluence • Cells were treated with 1 μg/ml Tb4 or peptides for 24 hours • Culture supernatant samples (n=3 per experiment, total of 4 experiments) were analyzed using a collagen type IV ELISA • Data was analyzed using the t-test

In series [14] the test system is human dermal fibroblasts. The series can be described thus: LDH cytotoxicity assay in human dermal fibroblasts exposed to cytotoxic agents. Particulars: summary of peptide uses. Format: cell-based. Details: key to Protects from cytotoxicity: P = active; U = useful. The procedure:
Dose Response Analysis of Peptide 3A • Human dermal fibroblasts (Fb, Cascade Biologics, OR) were cultured to 80% confluence • 2 ml CHX (0.002%) in basal medium ±1 μg/ml Tb4 or 1.0, 0.1, 0.01, or 0.001 μg/ml peptide 3A was added to Fb for 1, 2, 3, or 4 hours • 100 μl culture medium (n=4) was added to 100 μl LDH reagent and incubated at room temperature for 20 minutes • OD500 nm was read and averages ±SEM were calculated • Data was analyzed with probability of p≦0.05

Series [15] relates to human dermal Fb. The series is described as follows: CHX-induced apoptosis (APOPercentage dye) in human dermal Fb. In kind it is cell-based. The arrangement: key to Inhibits apoptosis: P = active; U = useful. Particulars: summary of peptide uses. As for the experimental part:
Effect of Tb4 and Peptide 3A on CHX-induced apoptosis • Human dermal Fb were cultured to 80% confluence • Fb were treated with 0.002% CHX+1 μg/ml Tb4 or peptide 3A, 4A or 6A for 1.5 hours • APOPercentage “dye” was added to the Fb cultures at a 1:50 dilution for an additional 30 minutes • Excess dye was washed from the cells, and digital images were captured. Cells dyed red were apoptotic • Adobe Photoshop was used to calculate the number of red pixels in six digitized images for each treatment • Statistical analysis was done using the t-test

As to “Ac-Leu-Lys-Lys-Thr-Glu-Thr-Gln-Glu-Lys-Asn-Pro-Leu-Pro-Ser-Lys-Glu-Thr-Ile-Glu-Gln-Glu-Lys-Gln-Ala-Gly-Glu-Ser-OH (Ac-LKKTETQEKNPLPSKETIEQEKQAGES-OH) [Fragment Db]”, in series [1], the “Inhibits tissue damage caused by UV radiation” value (“Inhibits tissue damage caused” below) is “U” and the “Protects tissue from UV radiation damage” value is reported as “U”. Moreover, in series [2], the Inhibits collagens entry was “U”. Further, the “Stimulates Elastin” value in series [3] is given as “U”. The Promotes neurite outgrowth result in series [4] is listed as “U”. In series [5], the “Stimulates L1 production” value is recorded as “U”. Besides, in [6], the “Restores impaired T-lymphocyte blastogenic response” value is “U”. Further, the Promotes neuron survival result in series [7] is “U”. Besides, the “Inhibits IkBa phosphorylation” value in [8] is listed as “U”.
For the substance “Ac-Ser-Asp-Lys-Pro-OH (Ac-SDKP-OH) [Peptide 2B]”, the Suppresses inflammation entry in series [9] is listed as “P”. In addition, in [1], the “Inhibits tissue damage caused” value is listed as “U” and the “Protects tissue from UV radiation damage” value was “U”. For the same substance, in [4], the Promotes neurite outgrowth entry is “U”. Further, the “Stimulates L1 production” value in [5] is “U”. Further, in [10], the “Suppression of TNF-a-stimulated IL8 secretion” value is “suppress”. In addition, in series [7], the Promotes neuron survival result is reported as “U”. For the same substance, the “Stimulates Migration” value in series [11] was “P”.
“H-Leu-Lys-Lys-Thr-Glu-Thr-Gln-Glu-Lys-Asn-Pro-Leu-Pro-Ser-Lys-Glu-Thr-Ile-Glu-Gln-Glu-Lys-Gln-Ala-Gly-Glu-Ser-OH (H-LKKTETQEKNPLPSKETIEQEKQAGES-OH) [Fragment Da]”: in series [1], the “Inhibits tissue damage caused” value is reported as “U” and the “Protects tissue from UV radiation damage” value was “U”. The Inhibits collagens entry in series [2] is “U”. In series [3], the “Stimulates Elastin” value is “U”. In addition, the Promotes neurite outgrowth result in [4] is on record as “U”. For the same substance, the “Stimulates L1 production” value in series [5] was “U”. Besides, the “Restores impaired T-lymphocyte blastogenic response” value in series [6] was “U”. In addition, the Promotes neuron survival result in [7] was “U”. Besides, in series [8], the “Inhibits IkBa phosphorylation” value was “U”.
“H-Leu-Lys-Lys-Thr-Glu-Thr-Gln-OH (H-LKKTETQ-OH) [Peptide 4A]”: in series [1], the “Inhibits tissue damage caused” value is reported as “U” and the “Protects tissue from UV radiation damage” value is listed as “U”. The “Inhibits NFkB translocation” value in series [12] is given as “P”. The “Collagen type IV secretion” value in series [13] (corneal epithelial cells, 1 μg/ml, 24 hours) is reported as “stimulate”. Besides, the “Stimulates collagen IV” value in series [13] is given as “P”. In addition, the Secretion of elastin result in series [3] (dermal Fb, 1 μg/ml once/day, 24, 48, or 72 hours) was “stimulates”. Also, the “Stimulates Elastin” value in [3] is given as “P”. Moreover, the Promotes neurite outgrowth result in series [4] is “U”. For the same substance, in series [5], the “Stimulates L1 production” value is on record as “U”. In addition, the Promotes neuron survival result in [7] was “U”.
With “H-SDKPDMAEIEKFDKSKLKKTET-OH [Fragment Aa]”, in [9], the Suppresses inflammation entry is on record as “U”. For the same substance, in series [1], the “Inhibits tissue damage caused” value is “U” and the “Protects tissue from UV radiation damage” value was “U”. Further, the “Inhibits NFkB translocation” value in series [12] is listed as “U”. Also, the “Stimulates collagen IV” value in series [13] is recorded as “U”. Also, the Inhibits collagens entry in series [2] was “U”. Also, the Protects from cytotoxicity result in series [14] was “U”. Moreover, the “Stimulates Elastin” value in [3] is given as “U”. The Promotes neurite outgrowth entry in series [4] was “U”. Also, the “Stimulates L1 production” value in series [5] was “U”. Further, the Promotes neuron survival result in series [7] was “U”. The “Stimulates Migration” value in series [11] was “U”. Also, in [15], the Inhibits apoptosis entry is “U”.
On to “H-SDKPDMAEIEKFDKSKLKKTETQ-OH [Fragment Ba]”, for which the Suppresses inflammation entry in [9] is “U”. In series [1], the “Inhibits tissue damage caused” value is recorded as “U” and the “Protects tissue from UV radiation damage” value is given as “U”. Moreover, the “Inhibits NFkB translocation” value in [12] was “U”. For the same substance, the “Stimulates collagen IV” value in series [13] is “U”. In addition, the Inhibits collagens result in series [2] was “U”. For the same substance, in series [14], the Protects from cytotoxicity entry was “U”. Further, the “Stimulates Elastin” value in series [3] is on record as “U”. The Promotes neurite outgrowth result in series [4] is “U”. In addition, the “Stimulates L1 production” value in series [5] was “U”. Moreover, in [7], the Promotes neuron survival entry was “U”. In addition, the “Stimulates Migration” value in [11] is “U”. For the same substance, in series [15], the Inhibits apoptosis result is given as “U”.
